In US8912236B2 (Alcon Research, Ltd., priority 2009, dated 2014):

Tested on: FGFR
Assay: Kinase inhibition, cell-free enzymatic assay
Assay type: biochemical
Conditions: 1 mM ATP

Cc1ccc(F)c(NC(=O)Nc2ccc(-c3cccc4[nH]nc(N)c34)cc2)c1 [RTK Inhibitor, N-[4-(3-amino-1H-indazol-4-yl)phenyl]-N′-(2-fluoro-5-methylphenyl) urea]
IC50: > 12.5 µM
